Test results as given in article PMC5824918, “HMG-CoA reductase from Camphor Tulsi (Ocimum kilimandscharicum) regulated MVA dependent biosynthesis of diverse terpenoids in homologous and heterologous plant systems” (Scientific Reports, 2018).

System: T1, OkHMGR
T1 construct: gene HMGR; cDNA from leaf
Test: spectrophotometric NADPH oxidation at […] nm, Lineweaver-Burk plot
Type: biochemical, Ocimum kilimandscharicum
Details: 7.5 mM DTT, 150 mM potassium phosphate pH 7.0, 30 °C

Row | Km (co-substrate HMG-CoA (0.05 mM in standard assay)) [µM] | Km (co-substrate NADPH (3.0 mM in standard assay)) [µM] | Compound
1 | 903 | – | NC(=O)C1=CN([C@@H]2O[C@H](COP(=O)(O)OP(=O)(O)OC[C@H]3O[C@@H](n4cnc5c(N)ncnc54)[C@H](OP(=O)(O)O)[C@@H]3O)[C@@H](O)[C@H]2O)C=CC1 [NADPH]
2 | – | 88 | CC(C)(COP(=O)(O)OP(=O)(O)OC[C@H]1O[C@@H](n2cnc3c(N)ncnc32)[C@H](O)[C@@H]1OP(=O)(O)O)[C@@H](O)C(=O)NCCC(=O)NCCSC(=O)C[C@@](C)(O)CC(=O)O [HMG-CoA]
